Measurements reported in ChEMBL document CHEMBL3885861, “Open TG-GATES”.

Organism: Rattus norvegicus
Assay: Open TG-GATES - Regimen: Daily Repeat
Format: toxicity, organism-based, Sprague-Dawley
Design: regimen Daily Repeat, gender Male, age 6 weeks
Conditions: in vivo, po, route gavage; for APTT / Bas / Eos / Fbg / Hb / Ht / Lym / MCH / MCHC / Mono / Neu / Plat / RBC / Ret: tissue Blood; for KIDNEY_L / KIDNEY_R / KIDNEY_TOTAL: tissue Kidney; for LIVER: tissue Liver; for ALP / ALT / AST / BUN / CRE / Ca / Cl / DBIL / GLC / IP / K / LDH / Na / PL / RALB / TBIL / TC / TG / TP / gamma-GTP: tissue Plasma
[1] = 0 mg/kg, 72 h, dose level Control, time 3 day
[2] = 0 mg/kg, […], dose level Control, time 7 day
[3] = 0 mg/kg, […], dose level Control, time 14 day
[4] = 0 mg/kg, […], dose level Control, time 28 day
[5] = 3 mg/kg, 72 h, dose level Low, time 3 day
[6] = 3 mg/kg, […], dose level Low, time 7 day
[7] = 3 mg/kg, […], dose level Low, time 14 day
[8] = 3 mg/kg, […], dose level Low, time 28 day

O=C(CCCN1CCC(O)(c2ccc(Cl)cc2)CC1)c1ccc(F)cc1 [HALOPERIDOL]
TERMINAL_BW [1]: 226.4 g
APTT [1]: 16.5 s
Bas [1]: 0%
Eos [1]: 0.2%
Fbg [1]: 223.2 mg/dL
Hb [1]: 13.8 g/dL
Ht [1]: 41.1%
Lym [1]: 84.4%
MCH [1]: 21.8 pg
MCHC [1]: 33.6%
Mono [1]: 4%
Neu [1]: 11.4%
Plat [1]: 119.4 x10_4/uL
RBC [1]: 632.8 x10_4/ul
Ret [1]: 7.7%
KIDNEY_L [1]: 1 g
KIDNEY_R [1]: 1 g
KIDNEY_TOTAL [1]: 2 g
LIVER [1]: 11.1 g
ALP [1]: 915.2 IU/L
ALT [1]: 38 IU/L
AST [1]: 59.6 IU/L
BUN [1]: 19.2 mg/dL
CRE [1]: 0.6 mg/dL
Ca [1]: 11.2 mg/dL
Cl [1]: 105.8 meq/L
DBIL [1]: 0 mg/dL
GLC [1]: 191.2 mg/dL
IP [1]: 8.4 mg/dL
K [1]: 4.9 meq/L
LDH [1]: 91.8 IU/L
Na [1]: 139.2 meq/L
PL [1]: 166.2 mg/dL
RALB [1]: 4 g/dL
TBIL [1]: 0.2 mg/dL
TC [1]: 88 mg/dL
TG [1]: 96.6 mg/dL
TP [1]: 6 g/dL
gamma-GTP [1]: 1.6 IU/L
TERMINAL_BW [2]: 261.8 g
TERMINAL_BW [3]: 307.2 g
TERMINAL_BW [4]: 396.3 g
APTT [2]: 16.9 s
Bas [2]: 0%
Eos [2]: 0.8%
Fbg [2]: 216.4 mg/dL
Hb [2]: 13.9 g/dL
Ht [2]: 41.8%
Lym [2]: 80.4%
MCH [2]: 21.2 pg
MCHC [2]: 33.3%
Mono [2]: 4.8%
Neu [2]: 14%
Plat [2]: 104.8 x10_4/uL
RBC [2]: 658 x10_4/ul
Ret [2]: 5.8%
APTT [3]: 16.2 s
Bas [3]: 0%
Eos [3]: 0.2%
Fbg [3]: 224.2 mg/dL
Hb [3]: 14.6 g/dL
Ht [3]: 43.8%
Lym [3]: 78.4%
MCH [3]: 20.4 pg
MCHC [3]: 33.3%
Mono [3]: 5.2%
Neu [3]: 16.2%
Plat [3]: 107.4 x10_4/uL
RBC [3]: 716 x10_4/ul
Ret [3]: 3.7%
APTT [4]: 16.6 s
Bas [4]: 0%
Eos [4]: 0.8%
Fbg [4]: 235.8 mg/dL
Hb [4]: 15.1 g/dL
Ht [4]: 45.3%
Lym [4]: 80.8%
MCH [4]: 19.2 pg
MCHC [4]: 33.4%
Mono [4]: 5.8%
Neu [4]: 12.6%
Plat [4]: 105.5 x10_4/uL
RBC [4]: 787.6 x10_4/ul
Ret [4]: 3%
KIDNEY_L [2]: 1.1 g
KIDNEY_R [2]: 1.1 g
KIDNEY_TOTAL [2]: 2.1 g
KIDNEY_L [3]: 1.2 g
KIDNEY_R [3]: 1.2 g
KIDNEY_TOTAL [3]: 2.4 g
KIDNEY_L [4]: 1.4 g
KIDNEY_R [4]: 1.4 g
KIDNEY_TOTAL [4]: 2.8 g
LIVER [2]: 12.9 g
LIVER [3]: 14 g
LIVER [4]: 16.7 g
ALP [2]: 874.8 IU/L
ALT [2]: 33.4 IU/L
AST [2]: 59.4 IU/L
BUN [2]: 20.2 mg/dL
CRE [2]: 0.5 mg/dL
Ca [2]: 11.2 mg/dL
Cl [2]: 104.8 meq/L
DBIL [2]: 0.006 mg/dL
GLC [2]: 196 mg/dL
IP [2]: 7.4 mg/dL
K [2]: 4.6 meq/L
LDH [2]: 93 IU/L
Na [2]: 138.8 meq/L
PL [2]: 169.8 mg/dL
RALB [2]: 3.9 g/dL
TBIL [2]: 0.3 mg/dL
TC [2]: 83 mg/dL
TG [2]: 134.4 mg/dL
TP [2]: 5.9 g/dL
gamma-GTP [2]: 1.8 IU/L
ALP [3]: 784.8 IU/L
ALT [3]: 32.6 IU/L
AST [3]: 62.4 IU/L
BUN [3]: 21.2 mg/dL
CRE [3]: 0.5 mg/dL
Ca [3]: 10.7 mg/dL
Cl [3]: 106.8 meq/L
DBIL [3]: 0.01 mg/dL
GLC [3]: 195.4 mg/dL
IP [3]: 7.4 mg/dL
K [3]: 4.8 meq/L
LDH [3]: 93.2 IU/L
Na [3]: 138.2 meq/L
PL [3]: 161.2 mg/dL
RALB [3]: 3.9 g/dL
TBIL [3]: 0.3 mg/dL
TC [3]: 76.2 mg/dL
TG [3]: 149 mg/dL
TP [3]: 6.2 g/dL
gamma-GTP [3]: 1.4 IU/L
ALP [4]: 558 IU/L
ALT [4]: 30.4 IU/L
AST [4]: 58.8 IU/L
BUN [4]: 22.2 mg/dL
CRE [4]: 0.6 mg/dL
Ca [4]: 11.1 mg/dL
Cl [4]: 105 meq/L
DBIL [4]: 0.052 mg/dL
GLC [4]: 177.4 mg/dL
IP [4]: 7.8 mg/dL
K [4]: 4.6 meq/L
LDH [4]: 79.4 IU/L
Na [4]: 140 meq/L
PL [4]: 160.8 mg/dL
RALB [4]: 4.1 g/dL
TBIL [4]: 0.2 mg/dL
TC [4]: 75.2 mg/dL
TG [4]: 176.2 mg/dL
TP [4]: 6.6 g/dL
gamma-GTP [4]: 1.6 IU/L
TERMINAL_BW [5]: 219.6 g
APTT [5]: 16 s
Bas [5]: 0%
Eos [5]: 1.4%
Fbg [5]: 210 mg/dL
Hb [5]: 14.1 g/dL
Ht [5]: 42.1%
Lym [5]: 75.8%
MCH [5]: 21.4 pg
MCHC [5]: 33.5%
Mono [5]: 5%
Neu [5]: 17.8%
Plat [5]: 113.5 x10_4/uL
RBC [5]: 658.8 x10_4/ul
Ret [5]: 6.6%
KIDNEY_L [5]: 0.9 g
KIDNEY_R [5]: 0.9 g
KIDNEY_TOTAL [5]: 1.9 g
LIVER [5]: 10.7 g
ALP [5]: 995 IU/L
ALT [5]: 39.6 IU/L
AST [5]: 62 IU/L
BUN [5]: 21 mg/dL
CRE [5]: 0.5 mg/dL
Ca [5]: 11.3 mg/dL
Cl [5]: 106.2 meq/L
DBIL [5]: 0 mg/dL
GLC [5]: 183.6 mg/dL
IP [5]: 7.9 mg/dL
K [5]: 4.8 meq/L
LDH [5]: 76.4 IU/L
Na [5]: 138.6 meq/L
PL [5]: 195.4 mg/dL
RALB [5]: 4 g/dL
TBIL [5]: 0.2 mg/dL
TC [5]: 93.6 mg/dL
TG [5]: 112 mg/dL
TP [5]: 6 g/dL
gamma-GTP [5]: 1.4 IU/L
TERMINAL_BW [6]: 256.9 g
TERMINAL_BW [7]: 298.2 g
TERMINAL_BW [8]: 375.7 g
APTT [6]: 16.5 s
Bas [6]: 0%
Eos [6]: 0.2%
Fbg [6]: 217 mg/dL
Hb [6]: 14.3 g/dL
Ht [6]: 42.9%
Lym [6]: 79.2%
MCH [6]: 21.1 pg
MCHC [6]: 33.4%
Mono [6]: 4.4%
Neu [6]: 16.2%
Plat [6]: 100.7 x10_4/uL
RBC [6]: 678.4 x10_4/ul
Ret [6]: 5.1%
APTT [7]: 17.2 s
Bas [7]: 0%
Eos [7]: 0.8%
Fbg [7]: 226.4 mg/dL
Hb [7]: 15.1 g/dL
Ht [7]: 45.1%
Lym [7]: 76.6%
MCH [7]: 20.9 pg
MCHC [7]: 33.6%
Mono [7]: 5.2%
Neu [7]: 17.4%
Plat [7]: 108.9 x10_4/uL
RBC [7]: 723.2 x10_4/ul
Ret [7]: 4%
APTT [8]: 17.3 s
Bas [8]: 0%
Eos [8]: 0%
Fbg [8]: 223.4 mg/dL
Hb [8]: 15.2 g/dL
Ht [8]: 45.4%
Lym [8]: 84.4%
MCH [8]: 19.4 pg
MCHC [8]: 33.5%
Mono [8]: 2.4%
Neu [8]: 13.2%
Plat [8]: 99.3 x10_4/uL
RBC [8]: 782.4 x10_4/ul
Ret [8]: 2.3%
KIDNEY_L [6]: 1 g
KIDNEY_R [6]: 1.1 g
KIDNEY_TOTAL [6]: 2.1 g
KIDNEY_L [7]: 1.2 g
KIDNEY_R [7]: 1.2 g
KIDNEY_TOTAL [7]: 2.4 g
KIDNEY_L [8]: 1.3 g
KIDNEY_R [8]: 1.2 g
KIDNEY_TOTAL [8]: 2.5 g
LIVER [6]: 12.2 g
LIVER [7]: 13.3 g
LIVER [8]: 14.9 g
ALP [6]: 845.6 IU/L
ALT [6]: 33.2 IU/L
AST [6]: 61.4 IU/L
BUN [6]: 19.2 mg/dL
CRE [6]: 0.6 mg/dL
Ca [6]: 11.6 mg/dL
Cl [6]: 106.8 meq/L
DBIL [6]: 0 mg/dL
GLC [6]: 187.8 mg/dL
IP [6]: 7.7 mg/dL
K [6]: 4.6 meq/L
LDH [6]: 93.4 IU/L
Na [6]: 138.4 meq/L
PL [6]: 162 mg/dL
RALB [6]: 4 g/dL
TBIL [6]: 0.2 mg/dL
TC [6]: 74.6 mg/dL
TG [6]: 132 mg/dL
TP [6]: 6.1 g/dL
gamma-GTP [6]: 1.4 IU/L
ALP [7]: 747.6 IU/L
ALT [7]: 28.2 IU/L
AST [7]: 63.2 IU/L
BUN [7]: 20 mg/dL
CRE [7]: 0.5 mg/dL
Ca [7]: 11 mg/dL
Cl [7]: 106.4 meq/L
DBIL [7]: 0.01 mg/dL
GLC [7]: 178.4 mg/dL
IP [7]: 6.8 mg/dL
K [7]: 4.7 meq/L
LDH [7]: 89.6 IU/L
Na [7]: 137.8 meq/L
PL [7]: 144.8 mg/dL
RALB [7]: 4 g/dL
TBIL [7]: 0.3 mg/dL
TC [7]: 62.2 mg/dL
TG [7]: 144.2 mg/dL
TP [7]: 6.3 g/dL
gamma-GTP [7]: 1.8 IU/L
ALP [8]: 579.4 IU/L
ALT [8]: 62.6 IU/L
AST [8]: 58.8 IU/L
BUN [8]: 20.8 mg/dL
CRE [8]: 0.6 mg/dL
Ca [8]: 10.9 mg/dL
Cl [8]: 107.6 meq/L
DBIL [8]: 0.054 mg/dL
GLC [8]: 178.6 mg/dL
IP [8]: 6.7 mg/dL
K [8]: 4.5 meq/L
LDH [8]: 76.2 IU/L
Na [8]: 139 meq/L
PL [8]: 145 mg/dL
RALB [8]: 4.1 g/dL
TBIL [8]: 0.2 mg/dL
TC [8]: 62.8 mg/dL
TG [8]: 187.4 mg/dL
TP [8]: 6.6 g/dL
gamma-GTP [8]: 1.4 IU/L
